Test results as given in US5741811A, “Polythiophene anti-tumor agents” (Purdue Research Foundation, priority 1996, dated 1998).

Legend:
Assay in all cases: NCI human tumor cell line panel growth inhibition
Format in all cases: cell-based
[1] = system: IGROV-1 ovarian cancer cells; conditions: for GI50: Homo sapiens, read-out: Log10 GI50 (converted)
[2] = system: RXF-631 renal cancer cells; conditions: Homo sapiens, read-out: Log10 GI50 (converted)
[3] = system: LXPL-529 lung cancer cells; conditions: for GI50: Homo sapiens, read-out: Log10 GI50 (converted)
[4] = system: XP-498 CNS cancer cells; conditions: read-out: Log10 GI50 (converted)
Description: (§1) The first screen measures the cytotoxicity against a panel of sixty different human tumor cell lines. This assay provides data regarding the general cytotoxicity of an individual compound.
(§2) The length of a bar is indicative of differential cytotoxicity against a specific type of tumor cells or tumor panels.
(§3) The antitumor cytotoxicity of the thiophene compounds tested in the first two in vitro assays was measured by a microculture assay using either 3-(4,5-dimethylthiazol-2-yl)-2,5-diphenyltetrazolium bromide (MTT) or sulforhodamine B (SRB). [M. R. Boyd in "Principles and Practices of Oncology," V. T. DeVita, Jr., S. Hellman and S. A. Rosenberg (Eds.), Vol. 3, PPO Updates, Number 10, 1989.] This assay has an advantage over in vivo assay in that results are obtained within a week as opposed to several months. The assay was carried out in 96-well microtiter plates. The MTT assay is based on the production of a dark blue formazan product by dehydrogenase in the mitochondria of live tumor cells after exposure to drug for 6 days [M. C. Alley, D. A. Scudiero, A. Monks, M. L. Hursey, M. J. Czerwinski, D. L. Fine, B. J. Abbott, J. G. Mayo, R. H. Shoemaker and M. R. Boyd, Cancer Res., 48, 589, 1988.] Thus, only live cells are stained and can be measured at 570 nm. The SRB assay is based on the binding of the anionic group to the basic amino acid residues of cellular proteins after exposure of tumor cells to drug for 2 days [P. Skehan, R. Storeng, D. Scudiero, A. Monks, J. McMahon, D. Vistica, J. T. Warren, H. Bohesch, S. Kenney and M. R. Boyd, J. Nat. Cancer Inst., 82, 1107, 1990.] Thus, the total protein (viability) can be measured at 564 nm.

[5] = system: UACC-257 melanoma cells; conditions: for GI50: Homo sapiens, read-out: Log10 GI50 (converted)
[6] = system: TK-10 renal cancer cells; conditions: for GI50: Homo sapiens, read-out: Log10 GI50 (converted)
[7] = system: NCI-H226 lung cancer cells; conditions: for GI50: Homo sapiens, read-out: Log10 GI50 (converted)
[8] = system: CAKI-1 renal cancer cells; conditions: CAKI-1, renal cancer; for GI50: Homo sapiens, read-out: Log10 GI50 (converted)
[9] = system: SN12C renal cancer cells; conditions: read-out: Log10 GI50 (converted)
[10] = system: ACHN renal cancer cells; conditions: read-out: Log10 GI50 (converted)
[11] = system: SK-MEL-2 melanoma cells; conditions: read-out: Log10 GI50 (converted)
[12] = system: SF-295 CNS cancer cells; conditions: read-out: Log10 GI50 (converted)
[13] = system: SK-OV-3 ovarian cancer cells
[14] = system: NCI-H23 lung cancer cells; conditions: read-out: Log10 GI50 (converted)
[15] = system: NCI-H522 lung cancer cells; conditions: read-out: Log10 GI50 (converted)
[16] = system: UACC-62 melanoma cells
[17] = system: UO-31 renal cancer cells; conditions: read-out: Log10 GI50 (converted)
[18] = system: EKVX lung cancer cells; conditions: read-out: Log10 GI50 (converted)
[19] = system: OVCAR-3 ovarian cancer cells; conditions: OVCAR-3, ovarian cancer
[20] = system: M-14 melanoma cells; conditions: M14, read-out: Log10 GI50 (converted)
[21] = system: COLO-205 colon cancer cells; conditions: COLO-205, colon cancer
[22] = system: HT29 colon cancer cells
[23] = system: NCI-H322M lung cancer cells
[24] = system: SNB-75 CNS cancer cells; conditions: Homo sapiens, read-out: Log10 GI50 (converted)
[25] = system: OVCAR-8 ovarian cancer cells
Description: as §1, §2, §3

[26] = system: SW-620 colon cancer cells
Description: as §1, §2, §3

[27] = system: HCC-2998 colon cancer cells
[28] = system: KM20L2 colon cancer cells
[29] = system: DLD-1 colon cancer cells
[30] = system: SF-268 CNS cancer cells; conditions: read-out: Log10 GI50 (converted)
[31] = system: OVCAR-5 ovarian cancer cells
[32] = system: HCT-15 colon cancer cells
[33] = system: MALME-3M melanoma cells; conditions: read-out: Log10 GI50 (converted)
[34] = system: A-498 renal cancer cells
[35] = system: A549/ATCC lung cancer cells
[36] = system: 786-0 renal cancer cells; conditions: read-out: Log10 GI50 (converted)
[37] = system: SK-MEL-28 melanoma cells; conditions: read-out: Log10 GI50 (converted)
Excerpt: (§4) The cytotoxic activity of the present polythiophene compounds have been measured utilizing three different assays or screens. The first screen measures the cytotoxicity against a panel of sixty different human tumor cell lines. This assay provides data regarding the general cytotoxicity of an individual compound. In particular this type of assay is useful in identifying compounds which have enhanced cytotoxic activity against slow growing tumors as compared to faster growing tumor cells such as leukemia tumor cell lines. The identification of such compounds is critical since previously identified antitumor agents have low cytotoxic activity against slower growing tumors. […] The specificity of a cytotoxic compound for tumor cell lines relative to normal cells is an important characteristic of an effective antitumor agent.
as §2, §3

[38] = system: OVCAR-4 ovarian cancer cells
Excerpt: as §4, §2, §3

[39] = system: RXF-393 renal cancer cells
[40] = system: NCI-H460 lung cancer cells
[41] = system: HCT-116 colon cancer cells
[42] = system: SNB-19 CNS cancer cells
[43] = system: HOP-18 lung cancer cells
[44] = system: HOP-62 lung cancer cells
[45] = system: KM12 colon cancer cells
Excerpt: as §4, §2, §3

[46] = system: HOP-92 lung cancer cells
Excerpt: as §4, §2, §3

[47] = Homo sapiens, read-out: Log10 GI50 (converted)

## OCc1ccc(-c2ccc(-c3ccc(-c4cccs4)s3)s2)s1
[1]
  GI50: 1.12 µM
[2]
  GI50: 11 µM
[3]
  GI50: 1.05 µM
[4]
  GI50: 11 µM
[5]
  GI50: 10.7 µM
[6]
  GI50: 0.891 µM
[7]
  GI50: 5.89 µM
[8]
  GI50: 0.617 µM

## O=Cc1ccc(-c2ccc(-c3cccs3)s2)s1 [drawing 32]
[9]
  GI50: 47.9 µM
[10]
  GI50: 51.3 µM
[1]
  GI50: 0.0603 µM
[11]
  GI50: 30.9 µM
[12]
  GI50: 69.2 µM
[13]; [47]
  GI50: 87.1 µM
[14]
  GI50: 55 µM
[15]
  GI50: 32.4 µM
[16]; [47]
  GI50: 0.01 µM
[17]
  GI50: 41.7 µM
[18]
  GI50: 55 µM
[19]; [47]
  GI50: 0.0302 µM
[20]
  GI50: 63.1 µM
[21]; [47]
  GI50: 5.37 µM
[22]; Homo sapiens, HT-29, read-out: Log10 GI50 (converted)
  GI50: 24.5 µM
[3]
  GI50: < 0.01 µM
[23]; [47]
  GI50: 42.7 µM
[24]
  GI50: 31.6 µM
[25]; [47]
  GI50: 53.7 µM
[26]; [47]
  GI50: 0.537 µM
[5]
  GI50: 0.0468 µM
[27]; [47]
  GI50: 17.8 µM
[28]; Homo sapiens, KM-20L2, read-out: Log10 GI50 (converted)
  GI50: 0.49 µM
[29]; [47]
  GI50: 7.94 µM
[30]
  GI50: 87.1 µM
[6]
  GI50: 0.525 µM
[31]; [47]
  GI50: 0.138 µM
[32]; [47]
  GI50: 24 µM
[33]
  GI50: 79.4 µM
[34]; Homo sapiens, A498, read-out: Log10 GI50 (converted)
  GI50: 0.0437 µM
[7]
  GI50: 0.0245 µM
[35]; [47]
  GI50: 32.4 µM
[8]
  GI50: 0.0138 µM
[36]
  GI50: 43.7 µM
[37]
  GI50: 89.1 µM
[38]; [47]
  GI50: 30.9 µM
[39]; [47]
  GI50: 16.6 µM
[40]; [47]
  GI50: 13.8 µM
[41]; [47]
  GI50: 0.0631 µM

## OCc1ccc(-c2ccc(CO)s2)s1 [drawing 33]
[1]
  Log10 GI50: -6.57 M
[13]
  Log10 GI50: -5.80 M
[16]
  Log10 GI50: -6.36 M
[42]
  Log10 GI50: -4.72 M
[19]
  Log10 GI50: -5.70 M
[43]
  Log10 GI50: -5.51 M
[21]
  Log10 GI50: -6.22 M
[44]
  Log10 GI50: -5.52 M
[22]
  Log10 GI50: -5.04 M
[3]
  Log10 GI50: -6.33 M
[23]
  Log10 GI50: -5.77 M
[25]
  Log10 GI50: -5.23 M
[26]
  Log10 GI50: -5.04 M
[5]
  Log10 GI50: -6.00 M
[27]
  Log10 GI50: -6.40 M
[28]
  Log10 GI50: -6.15 M
[29]
  Log10 GI50: -4.74 M
[6]
  Log10 GI50: -6.29 M
[31]
  Log10 GI50: -6.06 M
[32]
  Log10 GI50: -4.19 M
[34]
  Log10 GI50: -7.71 M
[7]
  Log10 GI50: -7.60 M
[35]
  Log10 GI50: -5.91 M
[8]
  Log10 GI50: -6.63 M
[45]
  Log10 GI50: -4.35 M
[46]
  Log10 GI50: -4.09 M
[38]
  Log10 GI50: -4.46 M
[39]
  Log10 GI50: -7.05 M
[40]
  Log10 GI50: -6.29 M
[41]
  Log10 GI50: -5.27 M
